Results reported in ChEMBL document CHEMBL1909046, “DrugMatrix in vitro pharmacology data”.

How the values were obtained:
[1] = DRUGMATRIX: Calcium Channel Type L, Benzothiazepine radioligand binding (ligand: [3H] Diltiazem); assay type: cell membranes, Rattus norvegicus, Wistar, Brain, Membrane; details: Not Active = under 50% inhibition at 10 µM
[2] = target: Sodium-dependent dopamine transporter (Homo sapiens, UniProt Q01959); assay: DRUGMATRIX: Dopamine Transporter radioligand binding (ligand: [125I] RTI-55); assay type: cell membranes, CHO-K1, Membrane; details: Not Active = under 50% inhibition at 10 µM
[3] = DRUGMATRIX: GABAA, Muscimol, Central radioligand binding (ligand: [3H] Muscimol); assay type: cell membranes, Rattus norvegicus, Wistar, Brain, Membrane; details: Not Active = under 50% inhibition at 10 µM
[4] = DRUGMATRIX: Glutamate, NMDA, Phencyclidine radioligand binding (ligand: [3H] TCP); assay type: cell membranes, Rattus norvegicus, Wistar, Cerebral cortex, Membrane; details: Not Active = under 50% inhibition at 10 µM
[5] = target: T1, Receptor-type tyrosine-protein phosphatase C (Homo sapiens, UniProt P08575); parameters: species or system Escherichia coli;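 further: inhibition of CD45 enzyme activity measured using DiFMUP as substrate; in other assays of this panel Not Active means under 50% inhibition at 10 µM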
T1 sequence (P08575 whole entry): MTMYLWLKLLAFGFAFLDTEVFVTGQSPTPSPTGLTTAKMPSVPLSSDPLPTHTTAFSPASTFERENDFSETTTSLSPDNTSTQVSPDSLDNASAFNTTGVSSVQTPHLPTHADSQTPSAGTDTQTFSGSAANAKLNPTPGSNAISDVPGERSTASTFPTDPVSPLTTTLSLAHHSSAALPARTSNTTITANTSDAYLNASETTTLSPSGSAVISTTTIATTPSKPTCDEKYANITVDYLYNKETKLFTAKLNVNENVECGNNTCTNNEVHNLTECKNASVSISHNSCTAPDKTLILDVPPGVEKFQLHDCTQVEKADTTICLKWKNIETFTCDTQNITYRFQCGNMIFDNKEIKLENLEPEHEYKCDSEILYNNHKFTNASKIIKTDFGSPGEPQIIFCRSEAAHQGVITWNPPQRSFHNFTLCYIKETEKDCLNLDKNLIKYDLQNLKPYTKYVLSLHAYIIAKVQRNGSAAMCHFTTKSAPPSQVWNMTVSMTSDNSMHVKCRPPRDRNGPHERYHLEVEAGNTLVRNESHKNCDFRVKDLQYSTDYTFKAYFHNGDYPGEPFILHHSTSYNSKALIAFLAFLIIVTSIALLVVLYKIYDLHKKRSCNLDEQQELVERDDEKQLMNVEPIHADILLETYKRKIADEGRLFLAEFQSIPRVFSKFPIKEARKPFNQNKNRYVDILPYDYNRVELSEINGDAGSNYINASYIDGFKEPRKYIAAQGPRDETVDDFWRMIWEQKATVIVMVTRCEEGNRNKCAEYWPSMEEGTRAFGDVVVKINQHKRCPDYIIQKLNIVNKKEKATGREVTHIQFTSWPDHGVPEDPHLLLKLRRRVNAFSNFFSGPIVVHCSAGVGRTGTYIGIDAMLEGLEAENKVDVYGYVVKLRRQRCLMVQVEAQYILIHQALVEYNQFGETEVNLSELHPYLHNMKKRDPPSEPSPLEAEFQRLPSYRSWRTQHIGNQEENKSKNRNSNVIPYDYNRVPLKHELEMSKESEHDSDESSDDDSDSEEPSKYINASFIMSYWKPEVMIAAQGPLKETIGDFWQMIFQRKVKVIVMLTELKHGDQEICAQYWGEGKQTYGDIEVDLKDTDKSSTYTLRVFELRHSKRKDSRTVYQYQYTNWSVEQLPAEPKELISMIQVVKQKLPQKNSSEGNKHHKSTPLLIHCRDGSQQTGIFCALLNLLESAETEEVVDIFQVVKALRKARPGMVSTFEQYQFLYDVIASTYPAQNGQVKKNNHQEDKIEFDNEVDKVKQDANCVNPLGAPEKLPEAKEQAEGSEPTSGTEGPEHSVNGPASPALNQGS

[6] = target: Adenosine receptor A2a (Homo sapiens, UniProt P29274); assay: DRUGMATRIX: Adenosine A2A radioligand binding (ligand: […]); assay type: cell membranes, Membrane; details: hek293; Not Active = under 50% inhibition at 10 µM
[7] = target: Cytochrome P450 2C9 (Homo sapiens, UniProt P11712); details: bti-tn-5b1-4; further: in other assays of this panel Not Active means under 50% inhibition at 10 µM
Sequence of Cytochrome P450 2C9 (P11712 whole entry): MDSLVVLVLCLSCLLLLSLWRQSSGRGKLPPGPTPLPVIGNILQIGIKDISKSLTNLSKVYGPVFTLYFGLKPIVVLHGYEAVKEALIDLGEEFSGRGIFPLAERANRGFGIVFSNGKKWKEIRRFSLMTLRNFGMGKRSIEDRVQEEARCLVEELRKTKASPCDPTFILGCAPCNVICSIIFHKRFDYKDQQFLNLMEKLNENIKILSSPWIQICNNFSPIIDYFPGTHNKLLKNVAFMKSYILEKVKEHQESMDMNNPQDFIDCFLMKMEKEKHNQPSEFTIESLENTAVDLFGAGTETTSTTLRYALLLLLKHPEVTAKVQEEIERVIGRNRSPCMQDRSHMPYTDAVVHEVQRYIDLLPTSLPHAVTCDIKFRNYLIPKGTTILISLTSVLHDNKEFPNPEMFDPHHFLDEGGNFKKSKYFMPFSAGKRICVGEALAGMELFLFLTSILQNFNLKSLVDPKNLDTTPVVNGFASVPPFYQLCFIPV

Sequence of Sodium-dependent dopamine transporter (Q01959 whole entry): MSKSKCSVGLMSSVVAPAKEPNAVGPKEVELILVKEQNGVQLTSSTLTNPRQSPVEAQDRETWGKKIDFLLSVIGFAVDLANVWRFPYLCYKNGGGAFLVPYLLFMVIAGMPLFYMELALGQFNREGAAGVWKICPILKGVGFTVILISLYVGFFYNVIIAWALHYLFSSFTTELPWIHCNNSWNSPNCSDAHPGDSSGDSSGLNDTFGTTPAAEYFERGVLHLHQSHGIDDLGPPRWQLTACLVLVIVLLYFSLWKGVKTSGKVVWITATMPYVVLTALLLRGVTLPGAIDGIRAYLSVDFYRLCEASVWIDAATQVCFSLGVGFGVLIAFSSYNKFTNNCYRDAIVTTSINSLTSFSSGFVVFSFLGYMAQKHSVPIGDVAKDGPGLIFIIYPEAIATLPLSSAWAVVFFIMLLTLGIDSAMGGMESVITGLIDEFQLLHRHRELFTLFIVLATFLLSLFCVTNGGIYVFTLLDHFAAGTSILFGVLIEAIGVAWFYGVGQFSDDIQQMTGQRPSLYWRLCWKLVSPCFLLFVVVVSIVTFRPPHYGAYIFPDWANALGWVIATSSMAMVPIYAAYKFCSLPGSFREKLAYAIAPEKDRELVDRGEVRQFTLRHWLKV
Sequence of Adenosine receptor A2a (P29274 whole entry): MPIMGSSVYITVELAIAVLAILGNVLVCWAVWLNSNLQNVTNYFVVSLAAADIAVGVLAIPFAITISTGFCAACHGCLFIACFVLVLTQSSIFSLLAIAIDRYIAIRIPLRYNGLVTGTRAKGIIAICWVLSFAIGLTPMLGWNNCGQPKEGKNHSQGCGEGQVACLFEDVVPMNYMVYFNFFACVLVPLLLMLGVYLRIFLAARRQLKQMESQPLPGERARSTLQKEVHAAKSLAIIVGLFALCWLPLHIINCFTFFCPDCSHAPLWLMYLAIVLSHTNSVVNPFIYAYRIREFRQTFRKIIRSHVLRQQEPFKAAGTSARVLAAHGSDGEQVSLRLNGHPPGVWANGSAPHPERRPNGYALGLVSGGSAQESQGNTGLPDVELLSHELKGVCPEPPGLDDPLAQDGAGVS

C=CCC1(C(C)CCC)C(=O)NC(=O)NC1=O (stereo not drawn) [SECOBARBITAL]
IC50 [1]: Not Active
Ki [1]: Not Active
IC50 ([2]; cho-k1): Not Active
IC50 [3]: Not Active
Ki [3]: Not Active
IC50 [4]: Not Active
Ki [4]: Not Active
IC50 [5]: Not Active
IC50 [6]: Not Active
IC50 [7]: Not Active
Ki [7]: Not Active

C[C@@H]1CN(c2c(F)c(N)c3c(=O)c(C(=O)O)cn(C4CC4)c3c2F)C[C@H](C)N1 [SPARFLOXACIN]
IC50 [1]: Not Active
Ki [1]: Not Active
IC50 ([2]; cho-k1): Not Active
IC50 [3]: Not Active
Ki [3]: Not Active
IC50 [4]: Not Active
Ki [4]: Not Active
IC50 [5]: Not Active
IC50 [6]: Not Active
IC50 [7]: Not Active
Ki [7]: Not Active

Cc1noc(NS(=O)(=O)c2ccc(N)cc2)c1C [SULFISOXAZOLE]
IC50 [1]: Not Active
Ki [1]: Not Active
IC50 ([2]; cho-k1): Not Active
IC50 [3]: Not Active
Ki [3]: Not Active
IC50 [4]: Not Active
Ki [4]: Not Active
IC50 [5]: Not Active
IC50 [6]: Not Active
IC50 [7]: Not Active
Ki [7]: Not Active

CSc1ccc(/C=C2/C(C)=C(CC(=O)O)c3cc(F)ccc32)cc1 [SULINDAC SULFIDE]
IC50 [1]: Not Active
Ki [1]: Not Active
IC50 ([2]; cho-k1): Not Active
IC50 [3]: Not Active
Ki [3]: Not Active
IC50 [4]: Not Active
Ki [4]: Not Active
IC50 [5]: Not Active
IC50 [6]: Not Active
IC50 [7]: Not Active
Ki [7]: Not Active

Nc1c2c(nc3ccccc13)CCCC2 [TACRINE]
IC50 [1]: Not Active
Ki [1]: Not Active
IC50 ([2]; cho-k1): Not Active
IC50 [3]: Not Active
Ki [3]: Not Active
IC50 [4]: Not Active
Ki [4]: Not Active
IC50 [5]: Not Active
IC50 [6]: Not Active
IC50 [7]: Not Active
Ki [7]: Not Active

Nc1nc2nc[nH]c2c(=S)[nH]1 [THIOGUANINE]
IC50 [1]: Not Active
Ki [1]: Not Active
IC50 ([2]; cho-k1): Not Active
IC50 [3]: Not Active
Ki [3]: Not Active
IC50 [4]: Not Active
Ki [4]: Not Active
IC50 [5]: Not Active
IC50 [6]: Not Active
IC50 [7]: Not Active
Ki [7]: Not Active

Cc1cccc(N(C)C(=S)Oc2ccc3ccccc3c2)c1 [TOLNAFTATE]
IC50 [1]: Not Active
Ki [1]: Not Active
IC50 ([2]; cho-k1): Not Active
IC50 [3]: Not Active
Ki [3]: Not Active
IC50 [4]: Not Active
Ki [4]: Not Active
IC50 [5]: Not Active
IC50 [6]: Not Active
IC50 [7]: Not Active
Ki [7]: Not Active

CC1(C)O[C@@H]2C[C@H]3[C@@H]4CCC5=CC(=O)C=C[C@]5(C)[C@@]4(F)[C@@H](O)C[C@]3(C)[C@]2(C(=O)CO)O1 [TRIAMCINOLONE ACETONIDE]
IC50 [1]: Not Active
Ki [1]: Not Active
IC50 ([2]; cho-k1): Not Active
IC50 [3]: Not Active
Ki [3]: Not Active
IC50 [4]: Not Active
Ki [4]: Not Active
IC50 [5]: Not Active
IC50 [6]: Not Active
IC50 [7]: Not Active
Ki [7]: Not Active

NS(=O)(=O)c1cc2c(cc1Cl)NC(C(Cl)Cl)NS2(=O)=O (stereo not drawn) [TRICHLORMETHIAZIDE]
IC50 [1]: Not Active
Ki [1]: Not Active
IC50 ([2]; cho-k1): Not Active
IC50 [3]: Not Active
Ki [3]: Not Active
IC50 [4]: Not Active
Ki [4]: Not Active
IC50 [5]: Not Active
IC50 [6]: Not Active
IC50 [7]: Not Active
Ki [7]: Not Active

N[C@@H]1[C@H]2CN(c3nc4c(cc3F)c(=O)c(C(=O)O)cn4-c3ccc(F)cc3F)C[C@@H]12 [TROVAFLOXACIN]
IC50 [1]: Not Active
Ki [1]: Not Active
IC50 ([2]; read-out: IC50): 62.2 µM
Ki ([2]; read-out: Ki): 49.4 µM
IC50 [3]: Not Active
Ki [3]: Not Active
IC50 [4]: Not Active
Ki [4]: Not Active
IC50 [5]: Not Active
IC50 [6]: Not Active
IC50 [7]: Not Active
Ki [7]: Not Active

N#CC(C#N)=Cc1ccc(O)c(O)c1 [TYRPHOSTIN 23]
IC50 [1]: Not Active
Ki [1]: Not Active
IC50 ([2]; cho-k1): Not Active
IC50 [3]: Not Active
Ki [3]: Not Active
IC50 [4]: Not Active
Ki [4]: Not Active
IC50 [5]: Not Active
IC50 [6]: Not Active
IC50 [7]: Not Active
Ki [7]: Not Active

CC[C@]1(O)C[C@H]2CN(CCc3c([nH]c4ccccc34)[C@@](C(=O)OC)(c3cc4c(cc3OC)N(C=O)[C@H]3[C@@](O)(C(=O)OC)[C@H](OC(C)=O)[C@]5(CC)C=CCN6CC[C@]43[C@@H]65)C2)C1 [VINCRISTINE]
IC50 [1]: Not Active
Ki [1]: Not Active
IC50 ([2]; cho-k1): Not Active
IC50 [3]: Not Active
Ki [3]: Not Active
IC50 [4]: Not Active
Ki [4]: Not Active
IC50 [5]: Not Active
IC50 [6]: Not Active
IC50 [7]: Not Active
Ki [7]: Not Active

CCCOc1ccccc1-c1nc2nn[nH]c2c(=O)[nH]1 [ZAPRINAST]
IC50 [1]: Not Active
Ki [1]: Not Active
IC50 ([2]; cho-k1): Not Active
IC50 [3]: Not Active
Ki [3]: Not Active
IC50 [4]: Not Active
Ki [4]: Not Active
IC50 [5]: Not Active
IC50 [6]: Not Active
IC50 [7]: Not Active
Ki [7]: Not Active

SODIUM NITROPRUSSIDE
IC50 [1]: Not Active
Ki [1]: Not Active
IC50 ([2]; cho-k1): Not Active
Ki ([2]; cho-k1): Not Active
IC50 [3]: Not Active
Ki [3]: Not Active
IC50 [4]: Not Active
Ki [4]: Not Active
IC50 [5]: Not Active
Ki [5]: Not Active
IC50 [6]: Not Active
Ki [6]: Not Active
IC50 [7]: Not Active
Ki [7]: Not Active
